Reference: ChEMBL document CHEMBL3044789, “Comparing weed and crop seedling response to pre-emergence pendimethalin application in Corchorus olitorius and Abelmoschus esculentus” (Crop Prot, 2006)

Columns and labels:
Assay type in all cases: functional
[1] = system: Calopogonium mucunoides; assay: Herbicidal activity against Calopogonium mucunoides in Abelmoschus esculentus plots assessed as weed cover at 0.33 kg a.i/ha after 4 weeks (reference value: 22.6 +/- 0.49 %)
[2] = system: Euphorbia heterophylla; assay: Herbicidal activity against Euphorbia heterophylla in Abelmoschus esculentus plots assessed as weed cover at 0.33 kg a.i/ha after 4 weeks (reference value: 22.6 +/- 0.49 %)
[3] = system: Chromolaena odorata; assay: Herbicidal activity against Chromolaena odorata in Corchorus olitorius plots assessed as minor weed growth at 1.32 kg a.i/ha after 2 weeks
[4] = system: Chromolaena odorata; assay: Herbicidal activity against Chromolaena odorata in Corchorus olitorius plots assessed as minor weed growth at 0.99 kg a.i/ha after 2 weeks
[5] = system: Talinum fruticosum; assay: Herbicidal activity against Talinum fruticosum in Abelmoschus esculentus plots assessed as weed cover at 0.99 kg a.i/ha after 7 weeks (reference value: 14.7 +/- 0.46 %)
[6] = system: Euphorbia heterophylla; assay: Herbicidal activity against Euphorbia heterophylla in Abelmoschus esculentus plots assessed as weed cover at 1.32 kg a.i/ha after 2 weeks (reference value: 63.5 +/- 0.29 %)
[7] = system: Chromolaena odorata; assay: Herbicidal activity against Chromolaena odorata in Corchorus olitorius plots assessed as weed cover at 0.33 kg a.i/ha after 7 weeks (reference value: 1.7 +/- 0.56 %)
[8] = system: Mimosa pudica; assay: Herbicidal activity against Mimosa pudica in Abelmoschus esculentus plots assessed as minor weed growth at 0.33 kg a.i/ha after 2 weeks
[9] = system: Calopogonium mucunoides; assay: Herbicidal activity against Calopogonium mucunoides in Abelmoschus esculentus plots assessed as major weed growth at 1.32 kg a.i/ha after 2 weeks
[10] = system: Euphorbia heterophylla; assay: Herbicidal activity against Euphorbia heterophylla in Abelmoschus esculentus plots assessed as weed recovery at 1.32 kg a.i/ha after 2 weeks (reference value: 60.1 +/- 0.46 %)
[11] = system: Ageratum conyzoides; assay: Herbicidal activity against Ageratum conyzoides in Abelmoschus esculentus plots assessed as weed recovery at 1.32 kg a.i/ha after 2 weeks (reference value: 60.1 +/- 0.46 %)
[12] = system: Cyperus rotundus; assay: Herbicidal activity against Cyperus rotundus in Abelmoschus esculentus plots assessed as weed recovery at 0.66 kg a.i/ha after 2 weeks (reference value: 60.1 +/- 0.46 %)
[13] = system: Synedrella nodiflora; assay: Herbicidal activity against Synedrella nodiflora in Abelmoschus esculentus plots assessed as weed recovery at 0.66 kg a.i/ha after 2 weeks (reference value: 60.1 +/- 0.46 %)
[14] = system: Mimosa pudica; assay: Herbicidal activity against Mimosa pudica in Abelmoschus esculentus plots assessed as weed recovery at 0.33 kg a.i/ha after 2 weeks (reference value: 60.1 +/- 0.46 %)

`CCC(CC)Nc1c([N+](=O)[O-])cc(C)c(C)c1[N+](=O)[O-]` [PENDIMETHALIN] was tested, and the Activity [1] was 53.8%, the Activity [2] was 53.8% and the Activity [3] was 1 /m2. The Activity [4] was 1 /m2, the Activity [5] was 83.9% and the Activity [6] was 45%. The Activity [7] was 100%, the Activity [8] was 1 /m2 and the Activity [9] was 31 /m2. For the same compound, the Activity [10] was 33.2%, the Activity [11] was 33.2% and the Activity [12] was 47.9%. The Activity [13] was 47.9% and the Activity [14] was 39.2%.
